This note sets out measurements from patent US20090143457A1, “POLYCYCLIC COMPOUNDS FOR USE IN TREATING OCULAR NEURODEGENERATIVE DISEASES” (NORTHEASTERN OHIO UNIVERSITIES COLLEGE OF MEDICINE, priority 2007, published 2009).

Values joined by “and” are separate entries in the source; they are usually repeats but may differ in a detail not shown here. Equal values may be shown once.

For assay [1], the system named is MK-801 binding site in the NMDA channel. The assay can be described thus: [3H]MK-801 displacement binding in homogenate in the presence of NMDA and Gly. The conditions noted are these: for Hill slope value: dose-response of [3H]MK-801 binding; for displacement of [3H]MK-801: NMDA (100 μM) and Gly (100 μM), 5 nM [3H]MK-801, relative to total binding. The protocol: Now referring to FIG. 3, an example graph 300 that illustrates that at least a subset of the compounds described above have an affinity for the MK-801 binding site in the NMDA channel is presented. More particularly, some triquinylamine compounds may have an affinity for the MK-801 binding site in the NMDA channel. The triquinane-derived azatricycloundecane compounds 100, 102, 108, 116, and 118 (FIGS. 1a, 1b, 1e, 1i, and 1j, respectively) were tested for an ability to displaced labeled MK-801, and the results of such testing are shown in FIG. 3. The graph 300 also illustrates total binding of radiolabeled MK-801 (Total) and non-specific binding of unlabelled MK-801 (NS). […] Specific [^3H]MK-801 binding to the homogenate can be estimated by subtracting non-specific binding (NS) obtained in the presence of 100 μM unlabeled MK-801 from the total binding. Specific binding represented 75% of the total binding and non-specific binding only 25% of total binding at 5 nM [^3H]MK-80 1. Unlabeled MK-80 1 used to determine the non-specific binding also served as a reference compound. NMDA-stimulated displacement for each tested compound was calculated as the difference between the measured value for the labeled MK-801 in the presence of each test compound, and the total binding, although the purpose of the graph 300 represents only the non-specific binding for that particular compound. The compound 118 displaced [^3H]MK-801 by 41.09±4.1%. For the compounds 116, 108, 100, and 102, respectively, there was no statistically significant displacement of [^3H]MK-801, and displacement values were calculated to be 16.93±4.1%, 14.35±7.9%, 20.85±11.7%, and 9.28±6.17%, respectively. Statistical significance compared to total binding in a t-test is (*) p<0.05, (**) p<0.001.
Referring now to FIG. 4, an example graph 400 that illustrates dose-dependent effect of compound 118 shown in FIG. 1j on [^3H]MK-801 binding in the presence of NMDA (100 μM) and Gly (100 μM). More particularly, the graph 400 depicts results of a dose-response curve fitting that was performed to determine the IC50 value for the compound 118. […] The Hill slope values for compounds with high-affinity as NMDA antagonists (MK-801, Memantine, and NGP1-01) are near unity, with lower potency compounds having greater Hill slop values. The Hill slope value for the compound 118 was −1.157±0.052.
Background: Loss of bound radioactivity is the signal in a displacement assay; it reports binding, not function.

Assay [2] concerns L-type calcium channel. The assay can be described thus: IC50 with respect to the L-type calcium channel. It counts as biochemical.

What is called IC50 is the concentration that inhibits the measured activity by half.

In the case of `C[C@]12N[C@H](Cc3ccccc31)c1ccccc12` [MK-801, reference compound], the Hill slope value result in assay [1] is reported as “near unity”.

As for `CC12CC3CC(C)(C1)CC(N)(C3)C2` [Memantine, reference compound], the Hill slope value result in assay [1] is “near unity”.

For the compound `OC12C3C4CC5C6C4C1C6C(C53)N2CCc1ccccc1` (centres unmarked) [compound 104, N-phenylethyl-4-azahexacyclo[5.4.1.0^2,6.0.0^5,9.0^8,11]dodecan-3-ol], the IC50 in assay [2] worked out at 6.8 µM.

On to `CCCCCCCN1C2C3C4CC5C6C4C2C6C1(O)C53` (centres unmarked) [compound 106, N-heptyl-4-azahexacyclo[5.4.1.0^2,6.0.0^5,9.0^8,11]dodecan-3-ol], for which the IC50 in assay [2] is 7.5 µM.

Regarding `c1ccc(CCNC23OC4C5C6CC(C7C6C4C72)C53)cc1` (centres unmarked) [compound 112, 8-phenylethylamino-8,11-oxapentacyclo[5.4.0.0^2,6.0^3,10.0^5,9]undecane], the IC50 in assay [2] was 36.4 µM and 36.9 µM.

Turning to `c1ccc(CNC23OC4C5C6CC(C7C6C4C72)C53)cc1` (centres unmarked) [compound 120, 8-benzylamino-8,11-oxapentacyclo[5.4.0.0^2,6.0^3,10.0^5,9]undecane], the Hill slope value entry in assay [1] is on record as “near unity”. The IC50 in assay [2] was 60 µM.

Turning to `CCCCCCCN1CCC2CC3CCCC3C21` (centres unmarked) [compound 122, N-heptyl-3,1-azatricyclo[6.3.0.0^2,6]undecane], the concentration for half-maximal inhibition (IC50) in assay [2] amounted to 55 µM.

As to “N-(pyridin-4-ylmethyl)-3,11-azatricyclo[6.3.0.0^2,6]undecane [compound 102]”, in assay [1], the “displacement of [3H]MK-801” value stood at 9.28±6.17%. The IC50 in assay [2] was found to be 4.9 µM.

“N-benzyl-3,11-azatricyclo[6.3.0.0^2,6]undecane [compound 118]”: in assay [1], the “displacement of [3H]MK-801” value came out at 41.09±4.1% and the Hill slope value is on record as −1.157±0.052. Further, the “affinity for the NMDAR (comparison among triquinane-derived compounds)” value in assay [1] (among compounds 100, 102, 108, 116 and 118) is recorded as “highest affinity”. Besides, the IC50 in assay [1] (in the presence of NMDA (100 μM) and Gly (100 μM), dose-response curve fitting) came to 1.93 ± 0.018 µM.

Consider “N-benzyl-4-azahexacyclo[5.4.1.0^2,6.0.0^5,9.0^8,11]dodecan-3-ol [compound 110]”, for which the IC50 in assay [2] amounted to 32.9 µM.

Regarding “N-cyclohexylmethyl-3,11-azatricyclo[6.3.0.0^2,6]undecane [compound 116]”, in assay [1], the “displacement of [3H]MK-801” value was determined as 16.93±4.1%. Also, the IC50 in assay [2] was 46 µM and 53 µM.
